Laboratory results: US20250147039A1, “Compounds for complexation of rare earth elements and/or s-, p-, d- block metals, their coordination compounds, peptide conjugates, method of their preparation and use thereof” (USTAV ORGANICKE CHEMIE A BIOCHEMIE AV CR V.V.I., priority 2021, published 2025)

Columns and labels:
[1] = Formation of 1,5-cz-[M(Lig)] from Lig and M^III ions (metal dependent click-zip) (Charts 4, 5); assay type: physicochemical; conditions: MOPS/NaOH buffer pH 7.0; for conversion to 1,5-cz-[M(Lig)], Sc^III / conversion to 1,5-cz-[M(Lig)], Y^III: TD728, TD827 in 50% i-PrOH; for conversion to 1,5-cz-[M(Lig)], Y^III: TD714 sum of two diastereoisomers
[2] = Formation of 1,5-cz-[Ln(Lig)] from Lig and Ln^III ions (metal dependent click-zip), MOPS/NaOH buffer pH 7.0, analytical HPLC (Charts 1, 2); conditions: MOPS/NaOH buffer pH 7.0

## C#Cc1cccc(CN2CCN(CC(=O)O)CCN(Cc3cc(C(=O)OC(C)C)cc(CN=[N+]=[N-])n3)CCN(CC(=O)O)CC2)n1 [TD1148]
[1]; 1 week at 80° C.
  conversion to 1,5-cz-[Ln(Lig)] with hydrolysed group in the side chain, Sc^III: 11%
  conversion to 1,5-cz-[Ln(Lig)] with hydrolysed group in the side chain, Y^III: 94%
  conversion to 1,5-cz-[M(Lig)], Sc^III: 0%
  conversion to 1,5-cz-[M(Lig)], Y^III: 0%
[1]; 1 hour at 80° C.
  conversion to 1,5-cz-[Ln(Lig)] with hydrolysed group in the side chain, Sc^III: 0%
  conversion to 1,5-cz-[Ln(Lig)] with hydrolysed group in the side chain, Y^III: 3%
  conversion to 1,5-cz-[M(Lig)], Sc^III: 0%
  conversion to 1,5-cz-[M(Lig)], Y^III: 18%
[2]; after 1 week at 80° C.
  conversion to 1,5-cz-[Ln(Lig)] with hydrolysed group in the side chain, Ce^III: 27%
  conversion to 1,5-cz-[Ln(Lig)], Ce^III: 0%
  conversion to 1,5-cz-[Ln(Lig)] with hydrolysed group in the side chain, Dy^III: 93%
  conversion to 1,5-cz-[Ln(Lig)], Dy^III: 0%
  conversion to 1,5-cz-[Ln(Lig)] with hydrolysed group in the side chain, Er^III: 94%
  conversion to 1,5-cz-[Ln(Lig)], Er^III: 0%
  conversion to 1,5-cz-[Ln(Lig)] with hydrolysed group in the side chain, Eu^III: 90%
  conversion to 1,5-cz-[Ln(Lig)], Eu^III: 0%
  conversion to 1,5-cz-[Ln(Lig)] with hydrolysed group in the side chain, Gd^III: 90%
  conversion to 1,5-cz-[Ln(Lig)], Gd^III: 0%
  conversion to 1,5-cz-[Ln(Lig)] with hydrolysed group in the side chain, Ho^III: 94%
  conversion to 1,5-cz-[Ln(Lig)], Ho^III: 0%
  conversion to 1,5-cz-[Ln(Lig)] with hydrolysed group in the side chain, La^III: 36%
  conversion to 1,5-cz-[Ln(Lig)], La^III: 0%
  conversion to 1,5-cz-[Ln(Lig)] with hydrolysed group in the side chain, Lu^III: 96%
  conversion to 1,5-cz-[Ln(Lig)], Lu^III: 0%
  conversion to 1,5-cz-[Ln(Lig)] with hydrolysed group in the side chain, Nd^III: 71%
  conversion to 1,5-cz-[Ln(Lig)], Nd^III: 0%
  conversion to 1,5-cz-[Ln(Lig)] with hydrolysed group in the side chain, Pr^III: 61%
  conversion to 1,5-cz-[Ln(Lig)], Pr^III: 0%
  conversion to 1,5-cz-[Ln(Lig)] with hydrolysed group in the side chain, Sm^III: 86%
  conversion to 1,5-cz-[Ln(Lig)], Sm^III: 0%
  conversion to 1,5-cz-[Ln(Lig)] with hydrolysed group in the side chain, Tb^III: 91%
  conversion to 1,5-cz-[Ln(Lig)], Tb^III: 0%
  conversion to 1,5-cz-[Ln(Lig)] with hydrolysed group in the side chain, Tm^III: 95%
  conversion to 1,5-cz-[Ln(Lig)], Tm^III: 0%
  conversion to 1,5-cz-[Ln(Lig)] with hydrolysed group in the side chain, Yb^III: 95%
  conversion to 1,5-cz-[Ln(Lig)], Yb^III: 0%
[2]; after 1 hour at 80° C.
  conversion to 1,5-cz-[Ln(Lig)] with hydrolysed group in the side chain, Ce^III: 0%
  conversion to 1,5-cz-[Ln(Lig)], Ce^III: 0%
  conversion to 1,5-cz-[Ln(Lig)] with hydrolysed group in the side chain, Dy^III: 2%
  conversion to 1,5-cz-[Ln(Lig)], Dy^III: 14%
  conversion to 1,5-cz-[Ln(Lig)] with hydrolysed group in the side chain, Er^III: 4%
  conversion to 1,5-cz-[Ln(Lig)], Er^III: 33%
  conversion to 1,5-cz-[Ln(Lig)] with hydrolysed group in the side chain, Eu^III: 0%
  conversion to 1,5-cz-[Ln(Lig)], Eu^III: 4%
  conversion to 1,5-cz-[Ln(Lig)] with hydrolysed group in the side chain, Gd^III: 1%
  conversion to 1,5-cz-[Ln(Lig)], Gd^III: 5%
  conversion to 1,5-cz-[Ln(Lig)] with hydrolysed group in the side chain, Ho^III: 3%
  conversion to 1,5-cz-[Ln(Lig)], Ho^III: 21%
  conversion to 1,5-cz-[Ln(Lig)] with hydrolysed group in the side chain, La^III: 0%
  conversion to 1,5-cz-[Ln(Lig)], La^III: 0%
  conversion to 1,5-cz-[Ln(Lig)] with hydrolysed group in the side chain, Lu^III: 6%
  conversion to 1,5-cz-[Ln(Lig)], Lu^III: 57%
  conversion to 1,5-cz-[Ln(Lig)] with hydrolysed group in the side chain, Nd^III: 0%
  conversion to 1,5-cz-[Ln(Lig)], Nd^III: 1%
  conversion to 1,5-cz-[Ln(Lig)] with hydrolysed group in the side chain, Pr^III: 0%
  conversion to 1,5-cz-[Ln(Lig)], Pr^III: 0%
  conversion to 1,5-cz-[Ln(Lig)] with hydrolysed group in the side chain, Sm^III: 0%
  conversion to 1,5-cz-[Ln(Lig)], Sm^III: 3%
  conversion to 1,5-cz-[Ln(Lig)] with hydrolysed group in the side chain, Tb^III: 1%
  conversion to 1,5-cz-[Ln(Lig)], Tb^III: 9%
  conversion to 1,5-cz-[Ln(Lig)] with hydrolysed group in the side chain, Tm^III: 5%
  conversion to 1,5-cz-[Ln(Lig)], Tm^III: 45%
  conversion to 1,5-cz-[Ln(Lig)] with hydrolysed group in the side chain, Yb^III: 5%
  conversion to 1,5-cz-[Ln(Lig)], Yb^III: 54%

## C#Cc1cccc(CN2CCN(CC(=O)O)CCN(Cc3cc(C(=O)OC(C)(C)C)cc(CN=[N+]=[N-])n3)CCN(CC(=O)O)CC2)n1 [TD1160]
[1]; 1 week at 80° C.
  conversion to 1,5-cz-[Ln(Lig)] with hydrolysed group in the side chain, Y^III: 90%
  conversion to 1,5-cz-[M(Lig)], Y^III: 0%
[1]; 1 hour at 80° C.
  conversion to 1,5-cz-[Ln(Lig)] with hydrolysed group in the side chain, Y^III: 17%
  conversion to 1,5-cz-[M(Lig)], Y^III: 1%
[2]; after 1 week at 80° C.
  conversion to 1,5-cz-[Ln(Lig)] with hydrolysed group in the side chain, Lu^III: 91%
  conversion to 1,5-cz-[Ln(Lig)], Lu^III: 0%
  conversion to 1,5-cz-[Ln(Lig)] with hydrolysed group in the side chain, Sm^III: 85%
  conversion to 1,5-cz-[Ln(Lig)], Sm^III: 0%
  conversion to 1,5-cz-[Ln(Lig)] with hydrolysed group in the side chain, Tb^III: 89%
  conversion to 1,5-cz-[Ln(Lig)], Tb^III: 0%
[2]; after 1 hour at 80° C.
  conversion to 1,5-cz-[Ln(Lig)] with hydrolysed group in the side chain, Lu^III: 61%
  conversion to 1,5-cz-[Ln(Lig)], Lu^III: 3%
  conversion to 1,5-cz-[Ln(Lig)] with hydrolysed group in the side chain, Sm^III: 3%
  conversion to 1,5-cz-[Ln(Lig)], Sm^III: 0%
  conversion to 1,5-cz-[Ln(Lig)] with hydrolysed group in the side chain, Tb^III: 9%
  conversion to 1,5-cz-[Ln(Lig)], Tb^III: 0%

## C#Cc1cccc(CN2CCN(CC(=O)O)CCN(Cc3cc(N(C)C)cc(CN=[N+]=[N-])n3)CCN(CC(=O)O)CC2)n1 [TD1176]
[1]; 1 week at 80° C.
  conversion to 1,5-cz-[M(Lig)], Sc^III: 31%
  conversion to 1,5-cz-[M(Lig)], Y^III: 95%
[1]; 1 hour at 80° C.
  conversion to 1,5-cz-[M(Lig)], Sc^III: 6%
  conversion to 1,5-cz-[M(Lig)], Y^III: 30%
[2]; after 1 week at 80° C.
  conversion to 1,5-cz-[Ln(Lig)], Ce^III: 60%
  conversion to 1,5-cz-[Ln(Lig)], Dy^III: 96%
  conversion to 1,5-cz-[Ln(Lig)], Er^III: 96%
  conversion to 1,5-cz-[Ln(Lig)], Eu^III: 93%
  conversion to 1,5-cz-[Ln(Lig)], Gd^III: 91%
  conversion to 1,5-cz-[Ln(Lig)], Ho^III: 96%
  conversion to 1,5-cz-[Ln(Lig)], La^III: 73%
  conversion to 1,5-cz-[Ln(Lig)], Lu^III: 96%
  conversion to 1,5-cz-[Ln(Lig)], Nd^III: 85%
  conversion to 1,5-cz-[Ln(Lig)], Pr^III: 82%
  conversion to 1,5-cz-[Ln(Lig)], Sm^III: 92%
  conversion to 1,5-cz-[Ln(Lig)], Tb^III: 94%
  conversion to 1,5-cz-[Ln(Lig)], Tm^III: 96%
  conversion to 1,5-cz-[Ln(Lig)], Yb^III: 97%
[2]; after 1 hour at 80° C.
  conversion to 1,5-cz-[Ln(Lig)], Ce^III: 0%
  conversion to 1,5-cz-[Ln(Lig)], Dy^III: 20%
  conversion to 1,5-cz-[Ln(Lig)], Er^III: 46%
  conversion to 1,5-cz-[Ln(Lig)], Eu^III: 6%
  conversion to 1,5-cz-[Ln(Lig)], Gd^III: 7%
  conversion to 1,5-cz-[Ln(Lig)], Ho^III: 31%
  conversion to 1,5-cz-[Ln(Lig)], La^III: 0%
  conversion to 1,5-cz-[Ln(Lig)], Lu^III: 85%
  conversion to 1,5-cz-[Ln(Lig)], Nd^III: 2%
  conversion to 1,5-cz-[Ln(Lig)], Pr^III: 1%
  conversion to 1,5-cz-[Ln(Lig)], Sm^III: 5%
  conversion to 1,5-cz-[Ln(Lig)], Tb^III: 14%
  conversion to 1,5-cz-[Ln(Lig)], Tm^III: 63%
  conversion to 1,5-cz-[Ln(Lig)], Yb^III: 75%
